From patent US20220175931A1, “OSMOTIC PRESSURE REGULATOR FOR PERITONEAL DIALYSATE CONTAINING D-ALLOSE AND/OR D-ALLULOSE” (NATIONAL UNIVERSITY CORPORATION KAGAWA UNIVERSITY, priority 2019, published 2022)
In brackets after ≈: the same amount, converted by molar mass. Entries after “also recorded” stand apart in the source; their conditions may differ. Where two headings read alike, the source gives them in different places.

How the values were obtained:
E. coli = test: MIC test, agar plate dilution method; format: cell-based, Escherichia coli
Description: (§1) In accordance with the agar plate dilution method of the Japanese Society of Chemotherapy (1981), the minimum inhibitory concentration of a sample was determined.
(§2) Agar plates containing a sample at predetermined concentrations were smeared with a test bacterial suspension and were incubated, and then the minimum concentration at which bacterial growth was inhibited was determined as the minimum inhibitory concentration.
(§3) A 10-fold diluted solution of a sample was prepared with purified water and was added to an agar medium at a 1/10 volume.
(§4) From the upper limit concentration, the concentration was determined by serial 2-fold dilution to about 100 μg/ml.
(§5) (1) A 70% solution was prepared (14 g was diluted in a 20-ml measuring flask).
(§6) (2) The 70% solution was diluted by 2-fold dilution. Seven to eight steps.
(§7) (3) A 1/9 volume of each solution was added to an agar medium, and the mixture was poured in a petri dish and solidified (the sample concentration was 7% or more in the agar).
(§8) A liquid culture medium containing bacteria was incubated for 16 to 20 hours, and a prepared culture medium having a bacterial concentration of about 10^6/ml was used.

test bacteria = test: MIC test, summary statements for the test bacteria as a whole; format: cell-based
Description: as §1, §2
Drug concentration 128 μg/ml grown bacteria A+ B− C−
Drug concentration 64 μg/ml grown bacteria A+ B+ C−
Drug concentration 32 μg/ml grown bacteria A+ B+ C+

Enterococci = test: MIC test, agar plate dilution method; format: cell-based, Enterococcus faecalis
Description: as §1, §2, §3, §4, §5, §6, §7, §8

[1] = tested on: Staphylococcus epidermidis; test: MIC test, agar plate dilution method; format: cell-based
Description: as §1, §2, §3, §4, §5, §6, §7, §8

Pseudomonas aeruginosa = test: MIC test, agar plate dilution method; format: cell-based
Description: as §1, §2, §3, §4, §5, §6, §7, §8

MRSA = test: MIC test, agar plate dilution method; format: cell-based, Staphylococcus aureus (MRSA)
Description: as §1, §2, §3, §4, §5, §6, §7, §8

Corynebacterium = test: MIC test, agar plate dilution method; format: cell-based, Corynebacterium striatum
Description: as §1, §2, §3, §4, §5, §6, §7, §8

Staphylococcus aureus = test: MIC test, agar plate dilution method; format: cell-based, Staphylococcus aureus subsp. (MSSA)
Description: as §1, §2, §3, §4, §5, §6, §7, §8

male SD rats = test: Blood glucose level after intraperitoneal administration of D-allulose dialysate, normal rats, Test Example 3; format: in vivo, rat; settings: PDF-based, vs control group
Text: The number of dialysis patients due to end-stage renal failure has been increasing; diabetic nephropathy is the main basic disease of end-stage renal failure; peritoneal dialysis patients can work during the day and has high QOL; peritoneal dialysis uses an osmotic pressure difference by glucose to remove water and toxins; and glucose in a peritoneal dialysate is absorbed through the peritoneum into the body to increase the blood glucose level, and this may worsen prognosis of a dialysis patient with diabetes. Considering the above circumstances, Kagawa University is only the organization capable of producing all rare sugars in the world and can research the rare sugar optimum for an intended dialysate.
The test example of D-allulose includes a substitution example and an addition example. In the substitution example, D-allose in FIG. 7 was substituted with D-allulose.
To male SD rats, a control solution as a solution in which a peritoneal dialysis fluid (PDF) was mixed with glucose, a 10% substitution solution as a solution in which 10% (by weight) of glucose to be mixed was substituted with D-allulose, or a 10% load solution as a solution in which D-allulose was added to the control solution in an amount corresponding to 10% by weight of glucose was intraperitoneally administered in the same volume, and blood glucose levels were determined over time.

[2] = tested on: diabetic model rats (SDT fatty rats); test: Blood glucose level after intraperitoneal administration of peritoneal dialysate, diabetic model rats, Test Example 1; format: in vivo, rat
Description: (§9) As shown in the protocol in FIG. 4, 12- to 13-week-old male SDT fatty rats (a weight of 360 to 460 g) as diabetic model rats were fasted for 24 hours, then the weights and fasting blood glucose levels were determined, and the rats were randomly separated into two groups. As the administration solutions, a solution containing only glucose at a concentration of 4%, a solution having a sugar concentration of 4% in which D-allose was contained at 10% and glucose was contained at 90% were prepared, and each osmotic pressure of the two solutions was determined.
(§10) The diabetic model rats had more weights and higher fasting blood glucose levels than those of the normal rats. Blood samples were difficult to collect from the tails of the diabetic rats and thus were collected from the jugular vein, and blood glucose levels were determined by using the same blood glucose meter as above. The model rats had diabetes, and thus the blood glucose level increase was slow as compared with the normal rats.

normal rats (SD rats) [3] = test: Blood glucose level after intraperitoneal administration of peritoneal dialysate, normal rat models, Test Example 1; format: in vivo
Description: As shown in the protocol in FIG. 1, normal rats (6-week-old male SD rats, a weight of 155 to 170 g/body) were fasted for 24 hours, then the weights and fasting blood glucose levels were determined, and the rats were randomly separated into four groups.
As the administration solutions, a solution containing only glucose at a concentration of 4%, a solution having a sugar concentration of 4% in which D-allose was contained at 5% and glucose was contained at 95%, a solution having a sugar concentration of 4% in which D-allose was contained at 10% and glucose was contained at 90%, and a solution having a sugar concentration of 4% in which D-allose was contained at 25% were prepared, and each osmotic pressure of the four solutions was determined.
(§11) For the normal rats, blood samples were collected from the tail veins, and the blood glucose (blood sugar) levels were determined by using a commercially available blood glucose meter.
The results were subjected to Tukey-Kramer test by using an analysis software, JMP, and no significant difference was observed.

[4] = tested on: diabetic model rats (SDT fatty rats); test: Blood glucose level after intraperitoneal administration of PDF-based dialysate, diabetic model rats, Test Example 2; format: in vivo, rat; settings: PDF-based solutions
Description: As shown in the protocol in FIG. 9, 35- to 42-week-old male SDT fatty rats (a weight of 380 to 490 g) as diabetic model rats were fasted for 24 hours, then the weights and fasting blood glucose levels were determined, and the rats were randomly separated into two groups. As the administration solutions, the original solution was changed to PDF, and a solution containing only glucose as the sugar at a concentration of 4%, a solution having a sugar concentration of 4% in which D-allose was contained at 10% and glucose was contained at 90% were prepared, and each osmotic pressure of the two solutions was determined.
FIG. 10 show the test result of blood glucose level of the two groups of a group of the solution containing only glucose at a concentration of 4% and a group of the solution having a sugar concentration of 4% in which D-allose was contained at 10% and glucose was contained at 90%.
as §10, with “vein, and the blood glucose” for “vein, and blood glucose”

normal rats (SD rats) [5] = test: Blood glucose level after intraperitoneal administration of PDF-based dialysate, normal rat models, Test Example 2; format: in vivo; settings: PDF-based solutions
Description: Next, a peritoneal dialysis fluid (PDF) was prepared, solutions containing glucose in a constant total amount of (0.432 g) were prepared, and D-allose was added to the solution at a predetermined ratio to give the following two peritoneal dialysates having a sugar concentration of 4% by weight and an osmotic pressure of 500 mOsm/L.
as §9, with “7, normal rats (6-week-old” for “4, 12- to 13-week-old”, “SD rats, a” for “SDT fatty rats (a”, “155” for “360”, “175 g/body)” for “460 g) as diabetic model rats”, “4% and” for “4%,”, “pressure” for “pressure of the two solutions”
as §11
FIG. 8 show the test result of blood glucose level of the two groups of a group of the solution containing only glucose at a concentration of 4% and a group of the solution having a sugar concentration of 4% in which D-allose was contained at 10% and glucose was contained at 90%.

[6] = summary of results, drug concentration 128, 64, 32 μg/ml, bacterium not named
[7] = Escherichia coli, read-out: MIC
[8] = Enterococcus faecalis, read-out: MIC
[9] = Staphylococcus aureus, read-out: MIC
[10] = intraperitoneal, 0, 2, 4, and 6 hours

SMILES	MIC (E. coli) [mg/mL]	MIC (test bacteria; [6]) [mg/mL]	MIC (Enterococci) [mg/mL]	MIC [1] [mg/mL]	MIC (Pseudomonas aeruginosa) [mg/mL]	MIC (MRSA) [mg/mL]	MIC (Corynebacterium) [mg/mL]	MIC (Staphylococcus aureus) [mg/mL]	MIC (E. coli; [7]) [mg/mL]	MIC (Enterococci; [8]) [mg/mL]	MIC ([1]; read-out: MIC) [mg/mL]	MIC (Pseudomonas aeruginosa; read-out: MIC) [mg/mL]	MIC (MRSA; [9]) [mg/mL]	MIC (Corynebacterium; read-out: MIC) [mg/mL]	MIC (Staphylococcus aureus; read-out: MIC) [mg/mL]	also measured
O=C(CO)[C@@H](O)[C@@H](O)[C@@H](O)CO [Sample 4), L-allulose]	>70	0.128 (≈ 0.71 mM)	>70	>70	>70	>70	>70	>70	–	–	–	–	–	–	–	–
O=C(CO)[C@@H](O)[C@H](O)[C@H](O)CO [Sample 2), D-Fructose]	–	–	–	–	–	–	–	–	> 70	> 70	> 70	> 70	> 70	> 70	> 70	–
O=C(CO)[C@H](O)[C@H](O)[C@H](O)CO [Sample 3), D-allulose]	>70	> 0.128	>70	>70	>70	>70	>70	>70	–	–	–	–	–	–	–	blood glucose level increase (BS) (male SD rats): significantly suppressed
O=C[C@H](O)[C@H](O)[C@H](O)[C@H](O)CO [Sample 5), D-allose]	–	–	–	–	–	–	–	–	> 70	> 70	70 (≈ 389 mM)	> 70	> 70	> 70	> 70	MIC (test bacteria): 0.064 mg/mL (≈ 0.355 mM); blood glucose level increase [2, 10]: suppressed; AUC of blood glucose level ([2]; intraperitoneal, t-test): suppressive effect on the blood glucose level increase with a significant difference; AUC of blood glucose level (normal rats (SD rats) [3]; Tukey-Kramer test): significant declining trend; blood glucose level increase (time course) (normal rats (SD rats) [3]; fasted 24 hours, vs glucose-only solution): increase suppressive effect with a significant difference; also recorded: suppressed; blood glucose level increase [4, 10]: suppressed; AUC of blood glucose level ([4]; t-test): suppressive effect on the blood glucose level increase with a significant difference; blood glucose level increase (normal rats (SD rats) [5]): suppressed
O=C[C@H](O)[C@@H](O)[C@H](O)[C@H](O)CO [Sample 1), D-glucose]	–	–	–	–	–	–	–	–	> 70	> 70	> 70	> 70	> 70	> 70	> 70	–
